Experimental data as given in patent publication US9771372B2, “Compounds useful as S100-inhibitors” (Active Biotech AB, priority 2014, dated 2017).

Molecular target: T1, interaction between biotinylated human S100A9 and human RAGE-Fc (Homo sapiens, UniProt P06702)
T1 construct: made in house; host or cells: E. coli BL21(DE3)/pET1120 (pLR757)
T1 sequence (P06702 1-114): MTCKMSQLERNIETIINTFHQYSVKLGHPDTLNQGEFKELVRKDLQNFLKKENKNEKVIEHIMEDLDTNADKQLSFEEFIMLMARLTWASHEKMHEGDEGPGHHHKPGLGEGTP
Experiment: AlphaScreen inhibition assay, Biot-hS100A9:hRAGE-Fc (S100A9-RAGE inhibition assay)
Assay type: binding
Settings: biot-hS100A9 and rhRAGE-Fc, Ca2+ and Zn2+ in buffer
Source text: FIG. 1 is a schematic representation of an assay of the inhibition of the interaction between biotinylated human S100A9 and human RAGE-Fc using a small molecule S100A9 binder.
Inhibition Assay, Biot-hS100A9:hRAGE-Fc
The AlphaScreen (Amplified Luminescent Proximity Homogeneous Assay) contains two types of beads, Alpha Donor beads and Acceptor beads (PerkinElmer). Upon laser excitation at 680 nm a photosensitizer in the Donor bead converts ambient oxygen to a more excited singlet state. The singlet oxygen molecule diffuses (maximum 200 nm) to react with a thioxene derivative in the Acceptor bead and generates a chemiluminescence reaction. Fluorophores in the Acceptor bead subsequently emit light at 520-620 nm which can be detected in the EnVision® Multilabel plate Reader (PerkinElmer). The beads are light sensitive and all work with the beads is performed under subdued light conditions or using green filters on light sources (Roscolux Chroma Green #389, Rosco).
In the AlphaScreen Inhibition Assay described here, protein A (Staphylococcus aureus) conjugated Acceptor beads are used together with streptavidin coated Donor beads (Perkin Elmer 6760617M). The Acceptor beads are pre-incubated with Fc-tagged recombinant human RAGE (rhRAGE-Fc) allowing binding of the rhRAGE-Fc to protein A on the beads. Biotinylated human S100A9 (biot-hS100A9) is pre-incubated with the low molecular test compounds. The pre-mixes are then added to the wells of a micro-plate and incubated allowing interaction between biot-hS100A9 and rhRAGE-Fc. Subsequent addition of streptavidin coated Donor beads causes binding of the streptavidin to the biotinylated hS100A9. After an additional incubation the signal is measured.
Without inhibitory compounds, the interaction of biot-hS100A9 to rhRAGE-Fc will bring the Acceptor and Donor beads in close proximity thus generating a high signal. With an inhibitor present the complex will not form resulting in a decreased signal.
The AlphaScreen assay method is used for screening of the inhibitory effect of different compound samples at fixed concentrations or for IC50 determination by varying the compound concentrations. Samples of test compounds and references are prepared from solutions in DMSO. Relevant reference inhibitors and DMSO are used as controls for defined inhibition and non-inhibition, respectively in the assay. The percent inhibition in assay for test compounds and references are calculated by comparing their obtained assay signals with the signal values for the control with only DMSO (no compound).
Assay concentration of biotinylated hS100A9 and rhRAGE-Fc are batch dependent, and are determined and defined by separate cross-titration experiments using this AlphaScreen inhibition method to verify the optimal setup regarding signal strength and achievement of a defined inhibition with relevant reference compounds. The Final assay concentrations of Acceptor and Donor beads are 20 μg/mL.
Assay buffer is prepared by adding CaCl2 and ZnCl2 to HBS-P and is used freshly prepared in the experiment.
Biotin-hS100A9 solution for the experiment is prepared by dilution of appropriate amount of stock solution biot-hS100A9 in assay buffer (with CaCl2 and ZnCl2) and incubation in room temperature for 30 minutes.
rhRAGE-Fc solution for the experiment is prepared by dilution appropriate amount of rhRAGE-Fc stock in assay buffer.
Protein A Acceptor beads are diluted in assay buffer and are added to an equal volume of the prepared diluted rhRAGE-Fc solution. The beads are light sensitive. The vial is covered with aluminum foil and incubated at room temperature in the dark until biot-hS100A9+compound incubation is finished (see below).
Streptavidin-coated Donor beads are diluted in assay buffer. The beads are very light sensitive. The vial is covered with aluminum foil and incubated at room temperature in the dark until use (see below).
Samples of test compounds, appropriate references and DMSO control are diluted in assay buffer. […]

IC50	Structure (SMILES)
2 µM	O=C(NC1(C(F)(F)F)C(=O)Nc2nc3cc(Cl)c(Cl)cc3n21)C1CCNC1 (mixture of isomers) [Example 42, N-[10,11-dichloro-4-oxo-3-(trifluoromethyl)-2,5,7-triazatricyclo-[6.4.0.0^2,6]dodeca-1(12),6,8,10-tetraen-3-yl]pyrrolidine-3-carboxamide]
2 µM	CCNc1cccc(C(=O)NC2(C(F)(F)F)C(=O)Nc3nc4cc(C)c(C)cc4n32)n1 (stereo not shown) [Example 67, N-[10,11-dimethyl-4-oxo-3-(trifluoromethyl)-2,5,7-triazatricyclo[6.4.0.0^2,6]dodeca-1(12),6,8,10-tetraen-3-yl]-6-(ethylamino)pyridine-2-carboxamide]
2.3 µM	O=C(NC1(C(F)(F)F)C(=O)Nc2nc3cc(Cl)c(Cl)cc3n21)C1CCN(C(=O)C2CCCC2)C1 (racemic) [Example 50, (rac).1-cyclopentanecarbonyl-N-[10,11-dichloro-4-oxo-3-(trifluoromethyl)-2,5,7-triaza-tricyclo[6.4.0.0^2,6]dodeca-1(12),6,8,10-tetraen-3-yl]pyrrolidine-3-carboxamide]
1.3 µM	CCNc1cccc(C(=O)NC2(C(F)(F)F)C(=O)Nc3nc4cc(Cl)c(Cl)cc4n32)n1 (stereo not shown) [Example 70, N-[10,11-dichloro-4-oxo-3-(trifluoromethyl)-2,5,7-triazatricyclo[6.4.0.0^2,6]dodeca-1(12),6,8,10-tetraen-3-yl]-6-(ethylamino)pyridine-2-carboxamide]
4 µM	O=C(CN1CCOCC1)NC1(C(F)(F)F)C(=O)Nc2nc3cc(Cl)c(Cl)cc3n21 (stereo not shown) [Example 60, N-[10,11-dichloro-4-oxo-3-(trifluoromethyl)-2,5,7-triazatricyclo[6.4.0.0^2,6]dodeca-1(12),6,8,10-tetraen-3-yl]-2-(morpholin-4-yl)acetamide]
1.08 µM	COC(=O)c1cccc(C(=O)NC2(C(F)(F)F)C(=O)Nc3nc4cc(Cl)c(Cl)cc4n32)n1 (stereo not shown) [Example 95, methyl 6-{[10,11-dichloro-4-oxo-3-(trifluoromethyl)-2,5,7-triazatricyclo[6.4.0.0^2,6]dodeca-1(8),6,9,11-tetraen-3-yl]carbamoyl}pyridine-2-carboxylate]
3.44 µM	CO[C@H](C(=O)NC1(C(F)(F)F)C(=O)Nc2nc3cc(C)c(C)cc3n21)c1ccccc1 (single isomer, unassigned) [Example 147b]
5.4 µM	Cc1cc2nc3n(c2cc1C)C(NC(=O)CCc1c(Cl)cccc1Cl)(C(F)(F)F)C(=O)N3 (stereo not shown) [Example 29, 3-(2,6-dichlorophenyl)-N-[10,11-dimethyl-4-oxo-3-(trifluoromethyl)-2,5,7-triaza-tricyclo[6.4.0.0^2,6]dodeca-1(8),6,9,11-tetraen-3-yl]propanamide]
0.2 µM	COCCNc1cccc(C(=O)NC2(C(F)(F)F)C(=O)Nc3nc4cc(Cl)c(Cl)cc4n32)n1 (stereo not shown) [Example 71, N-[10,11-dichloro-4-oxo-3-(trifluoromethyl)-2,5,7-triazatricyclo[6.4.0.0^2,6]dodeca-1(12),6,8,10-tetraen-3-yl]-6-[(2-methoxyethyl)amino]pyridine-2-carboxamide]

Further lines, the compound ahead of its results:

Structure (SMILES)	IC50
O=C(CCC1CCCC1)NC1(C(F)(F)F)C(=O)Nc2nc3cc4c(cc3n21)CCC4 (stereo not shown) [Example 78, 3-cyclopentyl-N-[12-oxo-11-(trifluoromethyl)-10,13,15-triazatetracyclo[7.6.0.0^3,7.0^10,14]-pentadeca-1(9),2,7,14-tetraen-11-yl]propanamide]	1.2 µM
CC(=O)c1cccc2c1nc1n2C(NC(=O)CCC2CCCC2)(C(F)(F)F)C(=O)N1 (single isomer, unassigned) [Example 224a, N-[9-acetyl-4-oxo-3-(trifluoromethyl)-2,5,7-triazatricyclo[6.4.0.0^2,6]dodeca-1(12),6,8,10-tetraen-3-yl]-3-cyclopentylpropanamide]	0.88 µM
O=C(CCC1CCCC1)NC1(C(F)(F)F)C(=O)Nc2nc3c(C(=O)O)cc(Cl)cc3n21 (stereo not shown) [Example 233, 11-chloro-3-(3-cyclopentylpropanamido)-4-oxo-3-(trifluoromethyl)-2,5,7-triazatricyclo[6.4.0.0^2,6]dodeca-1(12),6,8,10-tetraene-9-carboxylic acid]	0.49 µM
COc1ccc(-c2cccc3c2nc2n3C(NC(=O)CCC3CCCC3)(C(F)(F)F)C(=O)N2)cc1 (single isomer, unassigned) [Example 230a, 3-cyclopentyl-N-[9-(4-methoxyphenyl)-4-oxo-3-(trifluoromethyl)-2,5,7-triazatricyclo[6.4.0.0^2,6]dodeca-1(12),6,8,10-tetraen-3-yl]propanamide]	0.26 µM
COc1cc2nc3n(c2cc1OC)C(NC(=O)CCC1CCCC1)(C(F)(F)F)C(=O)N3 (stereo not shown) [Example 76, 3-cyclopentyl-N-[10,11-dimethoxy-4-oxo-3-(trifluoromethyl)-2,5,7-triazatricyclo-[6.4.0.0^2,6]dodeca-1(12),6,8,10-tetraen-3-yl]propanamide]	11.4 µM
CS(=O)(=O)NC(=O)c1cccc2c1nc1n2C(NC(=O)CCC2CCCC2)(C(F)(F)F)C(=O)N1 (stereo not shown) [Example 166, 3-(3-cyclopentylpropanamido)-N-methanesulfonyl-4-oxo-3-(trifluoromethyl)-2,5,7-triazatricyclo[6.4.0.0^2,6]dodeca-1(12),6,8,10-tetraene-9-carboxamide]	0.4 µM
Cc1cc2nc3n(c2cc1C)C(NC(=O)[C@H](C)OCC1CCCC1)(C(F)(F)F)C(=O)N3 (single isomer, unassigned) [Example 215b]	2.66 µM
O=C(CCC1CCCC1)NC1(C(F)(F)F)C(=O)Nc2nc3c(F)c(Br)ccc3n21 (stereo not shown) [Example 177, N-[10-bromo-9-fluoro-4-oxo-3-(trifluoromethyl)-2,5,7-triazatricyclo[6.4.0.0^2,6]dodeca-1(12),6,8,10-tetraen-3-yl]-3-cyclopentylpropanamide]	1.63 µM
O=C(CCC1CCCC1)NC1(C(F)(F)F)C(=O)Nc2nc3cc(F)c(F)cc3n21 (stereo not shown) [Example 73, 3-cyclopentyl-N-[10,11-difluoro-4-oxo-3-(trifluoromethyl)-2,5,7-triazatricyclo-[6.4.0.0^2,6]dodeca-1(12),6,8,10-tetraen-3-yl]propanamide]	2.8 µM
CC(C)(C)c1ccc(-c2cccc3c2nc2n3C(NC(=O)CCC3CCCC3)(C(F)(F)F)C(=O)N2)cc1 (stereo not shown) [Example 191, N-[9-(4-tert-butylphenyl)-4-oxo-3-(trifluoromethyl)-2,5,7-triazatricyclo[6.4.0.0^2,6]dodeca-1(12),6,8,10-tetraen-3-yl]-3-cyclopentylpropanamide]	1.49 µM
O=C(CCC1CCCC1)NC1(C(F)(F)F)C(=O)Nc2nc3c(-c4ccc([N+](=O)[O-])cc4)cccc3n21 (stereo not shown) [Example 193, 3-cyclopentyl-N-[9-(4-nitrophenyl)-4-oxo-3-(trifluoromethyl)-2,5,7-triazatricyclo[6.4.0.0^2,6]dodeca-1(12),6,8,10-tetraen-3-yl]propanamide]	1.56 µM
O=C(CCC1CCCC1)NC1(C(F)(F)F)C(=O)Nc2nc3ccccc3n21 (stereo not shown) [Example 9, 3-cyclopentyl-N-[4-oxo-3-(trifluoromethyl)-2,5,7-triazatricyclo[6.4.0.0^2,6]dodeca-1(8),6,9,11-tetraen-3-yl]propanamide]	10.2 µM
COc1ccc(-c2cccc3c2nc2n3C(NC(=O)CCC3CCCC3)(C(F)(F)F)C(=O)N2)cc1 (single isomer, unassigned) [Example 230b, 3-cyclopentyl-N-[9-(4-methoxyphenyl)-4-oxo-3-(trifluoromethyl)-2,5,7-triazatricyclo[6.4.0.0^2,6]dodeca-1(12),6,8,10-tetraen-3-yl]propanamide]	2.88 µM
